Assay results as given in publication PMC3280276 (PLoS ONE, 2012).

Tested on: C-terminal peptide […]
Assay type: binding

saporin
interaction with C-terminal peptide […]: did not observe any measurable interactions
